This is an account of results in ChEMBL document CHEMBL4152293, “Synthesis and biological evaluation of podophyllotoxin derivatives as selective antitumor agents” (Eur J Med Chem, 2018).

The source made the active and inactive calls. No cut-off for these calls is given here.

Data set [1] has as its system MCF7. Put plainly: Cytotoxicity against human MCF7 cells assessed as growth inhibition after 72 hrs by MTT assay. Format: functional, cell-based. To be noted: MCF7, 72 h.
Data set [2] has as its system L02. Put plainly: Cytotoxicity against human L02 cells assessed as growth inhibition after 72 hrs by MTT assay. The data set is classed as cell-based. To be noted: L02, 72 h.
The test system of data set [3] is HepG2. Put plainly: Potency index, ratio of doxorubicin IC50 to test compound IC50 for human HepG2 cells. The data set is classed as functional.
In data set [4] the test system is HepG2. Put plainly: Cytotoxicity against human HepG2 cells assessed as growth inhibition after 72 hrs by MTT assay. The data set is classed as functional, cell-based. To be noted: HepG2, 72 h.
The test system of data set [5] is A549. Put plainly: Cytotoxicity against human A549 cells assessed as growth inhibition after 72 hrs by MTT assay. The data set is classed as functional, cell-based. To be noted: A549, 72 h.
The test system of data set [6] is HepG2. Put plainly: Potency index, ratio of VP-16 IC50 to test compound IC50 for human HepG2 cells. The data set is classed as functional.
Data set [7] in a line: Selectivity index, ratio of IC50 for human L02 cells to IC50 for human A549 cells. The data set is classed as toxicity. Conditions: L02 cells versus A549 cells, read-out: Ratio IC50.
In data set [8] the test system is MCF7. Put plainly: Potency index, ratio of VP-16 IC50 to test compound IC50 for human MCF7 cells. Format: functional.
In data set [9] the test system is MCF7. Put plainly: Potency index, ratio of doxorubicin IC50 to test compound IC50 for human MCF7 cells. The data set is classed as functional.
In data set [10] the test system is A549. Put plainly: Potency index, ratio of VP-16 IC50 to test compound IC50 for human A549 cells. Format: functional.
For data set [11], the system named is A549. Put plainly: Potency index, ratio of doxorubicin IC50 to test compound IC50 for human A549 cells. Format: functional.
Data set [12] deals with L02. Put plainly: Induction of morphological changes in human L02 cells assessed as irregular shape at 10 to 30 nM after 72 hrs by DAPI staining-based fluorescence microscopic method. The data set is classed as cell-based. Conditions: l02, 72 h, 0.03 µM.
Data set [13] has as its system A549. Put plainly: Induction of apoptosis in human A549 cells assessed as decrease in cell number at 10 to 30 nM after 72 hrs by DAPI staining-based fluorescence microscopic method. The data set is classed as functional.
Data set [14] deals with L02. Put plainly: Induction of apoptosis in human L02 cells assessed as nuclear fragmentation at 10 to 30 nM after 72 hrs by DAPI staining-based fluorescence microscopic method. The data set is classed as cell-based. To be noted: l02, 72 h, 0.03 µM.
Data set [15] has as its system L02. Put plainly: Induction of apoptosis in human L02 cells assessed as decrease in cell number at 10 to 30 nM after 72 hrs by DAPI staining-based fluorescence microscopic method. To be noted: l02, 72 h, 0.03 µM.
Data set [16] relates to A549. Put plainly: Induction of morphological changes in human A549 cells assessed as irregular shape at 10 to 30 nM after 72 hrs by DAPI staining-based fluorescence microscopic method. Format: functional, cell-based.
In data set [17] the test system is A549. Put plainly: Induction of apoptosis in human A549 cells assessed as nuclear fragmentation at 10 to 30 nM after 72 hrs by DAPI staining-based fluorescence microscopic method. Format: functional, cell-based.

For the compound `COc1cc([C@@H]2c3cc4c(cc3[C@H](OC(=O)CNC(=O)c3nc(C)c(C)nc3C)[C@H]3COC(=O)[C@H]23)OCO4)cc(OC)c1OC`, the IC50 was 39.9 nM in data set [1], 18.2 nM in data set [2], 11.7 nM in [4] and 9.3 nM in data set [5]. Further, the “Ratio IC50” value is on record as 59 in data set [3] and 4200 in data set [6].
On to `CC[C@H](C)[C@H](NC(=O)c1nc(C)c(C)nc1C)C(=O)O[C@H]1c2cc3c(cc2[C@@H](c2cc(OC)c(OC)c(OC)c2)[C@H]2C(=O)OC[C@@H]21)OCO3`, for which the IC50 in data set [1] was 988 nM; in [2], 420 nM; in data set [4], 348 nM; in data set [5], 119 nM.
The corresponding values for `COc1cc([C@@H]2c3cc4c(cc3[C@H](OC(=O)[C@@H]3CCCN3C(=O)OC(C)(C)C)[C@H]3COC(=O)[C@H]23)OCO4)cc(OC)c1OC` are 277 nM, 396 nM, 246 nM and 148 nM.
For `COc1cc([C@@H]2c3cc4c(cc3[C@H](OC(=O)[C@@H](N)CC(C)C)[C@H]3COC(=O)[C@H]23)OCO4)cc(OC)c1OC`, the IC50 in [1] was found to be 8.6 nM; in data set [2], 21.6 nM; in data set [4] it was 27.1 nM; in data set [5] it was 14.7 nM.
The corresponding values for `COc1cc([C@@H]2c3cc4c(cc3[C@H](OC(=O)[C@H](C)NC(=O)c3nc(C)c(C)nc3C)[C@H]3COC(=O)[C@H]23)OCO4)cc(OC)c1OC` are 15.6 nM, 25.5 nM, 26.9 nM and 15.8 nM.
The corresponding values for `CC[C@H](C)[C@H](NC(=O)OC(C)(C)C)C(=O)O[C@H]1c2cc3c(cc2[C@@H](c2cc(OC)c(OC)c(OC)c2)[C@H]2C(=O)OC[C@@H]21)OCO3` are 626 nM, 1120 nM, 690 nM and 223 nM.
The like results for `COc1cc([C@@H]2c3cc4c(cc3[C@H](OC(=O)[C@@H]3CCCN3C(=O)c3nc(C)c(C)nc3C)[C@H]3COC(=O)[C@H]23)OCO4)cc(OC)c1OC` were, in that order, 122 nM, 132 nM, 112 nM and 80.1 nM.
Turning to `COc1cc([C@@H]2c3cc4c(cc3[C@H](OC(=O)[C@H](C)NC(=O)OC(C)(C)C)[C@H]3COC(=O)[C@H]23)OCO4)cc(OC)c1OC`, the IC50 was 107 nM in data set [1], 110 nM in [2], 81.5 nM in data set [4] and 17.3 nM in [5].
In the case of `COc1cc([C@@H]2c3cc4c(cc3[C@@H](O[C@@H]3O[C@@H]5CO[C@@H](C)O[C@H]5[C@H](O)[C@H]3O)[C@H]3COC(=O)[C@H]23)OCO4)cc(OC)c1O` [ETOPOSIDE], in data set [7], the selectivity ratio is 0.5. Further, the IC50 in data set [1] was 4720 nM; in [2], 3480 nM; in data set [4], greater than 50000 nM; in [5], 9470 nM.
Regarding `COc1cc([C@@H]2c3cc4c(cc3[C@H](OC(=O)[C@H](Cc3ccccc3)NC(=O)c3nc(C)c(C)nc3C)[C@H]3COC(=O)[C@H]23)OCO4)cc(OC)c1OC`, the IC50 in data set [1] came out at 11.3 nM; in data set [2] it was 12 nM; in data set [4] it was 24.5 nM; in data set [5] it was 8.1 nM.
The corresponding values for `COc1cc([C@@H]2c3cc4c(cc3[C@H](OC(=O)[C@H](CC(C)C)NC(=O)c3nc(C)c(C)nc3C)[C@H]3COC(=O)[C@H]23)OCO4)cc(OC)c1OC` are 127 nM, 140 nM, 89.1 nM and 62.4 nM.
The like results for `COc1cc([C@@H]2c3cc4c(cc3[C@H](OC(=O)[C@H](C)N)[C@H]3COC(=O)[C@H]23)OCO4)cc(OC)c1OC` were, in that order, 18.5 nM, 10.8 nM, 17.8 nM and 13.6 nM.
Turning to `COc1cc([C@@H]2c3cc4c(cc3[C@H](OC(=O)CN)[C@H]3COC(=O)[C@H]23)OCO4)cc(OC)c1OC`, the IC50 in data set [1] is 7.2 nM; in data set [2], 14.5 nM; in [4], 17.5 nM; in data set [5], 12.9 nM. The figures for the “Ratio IC50” value in data set [8] and in data set [9] were 650 and 10, respectively.
As to `COc1cc([C@@H]2c3cc4c(cc3[C@H](OC(=O)[C@@H](N)Cc3ccccc3)[C@H]3COC(=O)[C@H]23)OCO4)cc(OC)c1OC`, the half-inhibitory concentration (IC50) in data set [1] worked out at 15.6 nM; in data set [2] it was 8.9 nM; in data set [4], 27.3 nM; in [5] it was 3.8 nM.
The corresponding values for `COc1cc([C@@H]2c3cc4c(cc3[C@H](OC(=O)[C@@H]3CCCN3)[C@H]3COC(=O)[C@H]23)OCO4)cc(OC)c1OC` are 7.6 nM, 6.2 nM, 12.8 nM and 2.8 nM.
In the case of `COc1cc([C@@H]2c3cc4c(cc3[C@H](OC(=O)CNC(=O)OC(C)(C)C)[C@H]3COC(=O)[C@H]23)OCO4)cc(OC)c1OC`, the IC50 in data set [1] came to 11.3 nM; in data set [2], 7.3 nM; in data set [4] it was 26.6 nM; in [5] it was 1.6 nM. For the same compound, the figures for the “Ratio IC50” value in data set [10] and in [11] were 5900 and 140, respectively.
For the compound `COc1cc([C@@H]2c3cc4c(cc3[C@H](OC(=O)c3nc(C)c(C)nc3C)[C@H]3COC(=O)[C@H]23)OCO4)cc(OC)c1OC`, the IC50 came out at 63.5 nM in data set [1], 115 nM in data set [2], 57.8 nM in data set [4] and 76.9 nM in data set [5].
The like results for `COc1cc([C@@H]2c3cc4c(cc3[C@H](OC(=O)CN(C)C(=O)c3nc(C)c(C)nc3C)[C@H]3COC(=O)[C@H]23)OCO4)cc(OC)c1OC` were, in that order, 66.4 nM, 15.8 nM, 58.3 nM and 20.1 nM.
In the case of `CC[C@H](C)[C@H](N)C(=O)O[C@H]1c2cc3c(cc2[C@@H](c2cc(OC)c(OC)c(OC)c2)[C@H]2C(=O)OC[C@@H]21)OCO3`, the IC50 in data set [1] was found to be 17.3 nM; in data set [2] it was 11.1 nM; in data set [4], 22.5 nM; in [5] it was 19.2 nM.
Regarding `COc1cc([C@@H]2c3cc4c(cc3[C@H](OC(=O)[C@H](CC(C)C)NC(=O)OC(C)(C)C)[C@H]3COC(=O)[C@H]23)OCO4)cc(OC)c1OC`, the IC50 in data set [1] was found to be 110 nM; in [2] it was 180 nM; in [4] it was 106 nM; in data set [5], 130 nM.
As for `COc1cccc2c1C(=O)c1c(O)c3c(c(O)c1C2=O)C[C@@](O)(C(=O)CO)C[C@@H]3O[C@H]1C[C@H](N)[C@H](O)[C@H](C)O1` [DOXORUBICIN], the figures for the half-inhibitory concentration (IC50) in data set [2] and in data set [5] were 53.3 nM and 228 nM, respectively.
On to `CNCC(=O)O[C@H]1c2cc3c(cc2[C@@H](c2cc(OC)c(OC)c(OC)c2)[C@H]2C(=O)OC[C@@H]21)OCO3`, for which the Activity entry in data set [12], in data set [14] and in data set [15] was “Toxic” throughout. In addition, the outcome in data set [13], in [16] and in data set [17] was Active. For the same compound, the IC50 in data set [1] was 17.5 nM; in [2] it was 9.6 nM; in [4], 24.9 nM; in [5], 6.8 nM.
Consider `COc1cc([C@@H]2c3cc4c(cc3[C@H](OC(=O)[C@H](Cc3ccccc3)NC(=O)OC(C)(C)C)[C@H]3COC(=O)[C@H]23)OCO4)cc(OC)c1OC`, for which the IC50 is 95.3 nM in [1], 78.4 nM in data set [2], 87.1 nM in data set [4] and 30.2 nM in data set [5].
